Test results: patent US20250360235A1, “RADI[…] AND METHOD FOR RADIOLABELLING” (Telix Innovations SA, priority 2024, published 2025)

How the values were obtained:
Assay type in all cases: physicochemical
[1] = Visual inspection of [68Ga]PSMA-11 solution (acceptance: colourless to slightly yellow solution, free from visible particles); parameters: key: C = Conforms to specifications
Description: (§1) Table 1 to Table 5 show the results of various radiolabelling experiments on radiochemical purity and the chelation yield. The radiolabelling experiments in the tables are carried out as described in: • Example 1 for when the gallium-68 source is GE Liquid target generator and EZAG GalliaPharm generator; • Example 2 for when the gallium-68 source is IRE Galli Eo generator; • Example 3 for when the gallium-68 source is GE solid target generator;
(§2) However, the experiments were carried out with the amount of ascorbic acid as indicated in the Tables 1 to 5, and the activity as indicated in the Tables 1 to 5. Radiochemical purities were measured at various times (T0, T1, T4, T6) after the radiolabelled experiments have been conducted.
(§3) The kits of Example 1, Example 2 or Example 3, with amounts of ascorbic acid as set out in Table 7 were used in the experiments for the ascorbic acid bracketing matrix. Three strengths of [^68Ga]Ga-PSMA-11 will be tested, i.e. 50 mCi/ml, 7 mCi/ml and 1 mCi/ml. Radiochemical purity was determined at different time points (TO, T1, T4 or T6), as set out in Table 7.

[2] = as above; parameters: key: C = conforms to specifications
Description: as §1, §2, §3

[3] = as above; parameters: key: C = all results conform to specifications
Description: as §1, §2, §3

Measured: Visual Inspection

O=C([O-])CN(CCN(CC(=O)[O-])Cc1cc(CCC(=O)NCCCCCC(=O)NCCCC[C@H](NC(=O)N[C@@H](CCC(=O)O)C(=O)O)C(=O)O)ccc1[O-])Cc1cc(CCC(=O)O)ccc1[O-].[68Ga+3].[OH3+] [[^68Ga]PSMA-11, gallium-68 radiolabelled Glu-urea-Lys-HBED-CC (gozetotide or PSMA-11)]
C: [1]; bracketing ~1 mCi/mL, 18.75 mg ascorbic acid, 8.9-11.5 mCi, 0.85-1.09 mCi/mL, IRE Galli Eo, n=2, T0 | [1]; bracketing ~1 mCi/mL, 18.75 mg ascorbic acid, 8.9-11.5 mCi, 0.85-1.09 mCi/mL, IRE Galli Eo, n=2, T1 (1 h) | [1]; bracketing ~1 mCi/mL, 25 mg ascorbic acid, 8.8-12.7 mCi, 0.84-1.21 mCi/mL, 2 × IRE Galli Eo, n=2, T0 | [1]; bracketing ~1 mCi/mL, 25 mg ascorbic acid, 8.8-12.7 mCi, 0.84-1.21 mCi/mL, 2 × IRE Galli Eo, n=2, T1 (1 h) | [1]; bracketing ~1 mCi/mL, 31.25 mg ascorbic acid, 15.2-26.9 mCi, 1.44-2.54 mCi/mL, EZAG GalliaPharm, n=2, T0 | [1]; bracketing ~1 mCi/mL, 31.25 mg ascorbic acid, 15.2-26.9 mCi, 1.44-2.54 mCi/mL, EZAG GalliaPharm, n=2, T1 (1 h) | [1]; bracketing ~7 mCi/mL, 18.75 mg ascorbic acid, 51.0-58.0 mCi, 5.55-6.5 mCi/mL, IRE Galli Eo, n=2, T0 | [1]; bracketing ~7 mCi/mL, 18.75 mg ascorbic acid, 51.0-58.0 mCi, 5.55-6.5 mCi/mL, IRE Galli Eo, n=2, T4 (4 h) | [1]; bracketing ~7 mCi/mL, 25 mg ascorbic acid, 51.6-74.4 mCi, 4.56-6.92 mCi/mL, 3 × GE Liquid Target, 3 × IRE Galli Eo, 3 × EZAG GalliaPharm, n=9, T0 | [1]; bracketing ~7 mCi/mL, 25 mg ascorbic acid, 51.6-74.4 mCi, 4.56-6.92 mCi/mL, 3 × GE Liquid Target, 3 × IRE Galli Eo, 3 × EZAG GalliaPharm, n=9, T4 (4 h) | [1]; bracketing ~7 mCi/mL, 31.25 mg ascorbic acid, 61.5-62.0 mCi, 5.85-5.88 mCi/mL, EZAG GalliaPharm, n=2, T0 | [1]; bracketing ~7 mCi/mL, 31.25 mg ascorbic acid, 61.5-62.0 mCi, 5.85-5.88 mCi/mL, EZAG GalliaPharm, n=2, T4 (4 h) | [1]; bracketing ~50 mCi/mL, 20 mg ascorbic acid, 514-544 mCi, 48.3-51.9 mCi/mL, GE Solid Target, n=2, T0 | [1]; bracketing ~50 mCi/mL, 20 mg ascorbic acid, 514-544 mCi, 48.3-51.9 mCi/mL, GE Solid Target, n=2, T6 (6 h) | [1]; bracketing ~50 mCi/mL, 25 mg ascorbic acid, 537-551 mCi, 50.2-51.6 mCi/mL, GE Solid Target, n=3, T0 | [1]; bracketing ~50 mCi/mL, 25 mg ascorbic acid, 537-551 mCi, 50.2-51.6 mCi/mL, GE Solid Target, n=3, T6 (6 h) | [1]; bracketing ~50 mCi/mL, 31.25 mg ascorbic acid, 500-544 mCi, 48.1-51.7 mCi/mL, GE Solid Target, n=2, T0 | [1]; bracketing ~50 mCi/mL, 31.25 mg ascorbic acid, 500-544 mCi, 48.1-51.7 mCi/mL, GE Solid Target, n=2, T6 (6 h) | [2]; 1 mg ascorbic acid, 58.7-71.1 mCi, 7.47-8.99 mCi/mL, GE Liquid target, n=3, T0 | [2]; 1 mg ascorbic acid, 58.7-71.1 mCi, 7.47-8.99 mCi/mL, GE Liquid target, n=3, T4 (4 h) | [2]; 2.5 mg ascorbic acid, 49.9-76.9 mCi, 6.31-9.72 mCi/mL, GE Liquid target, n=3, T0 | [2]; 2.5 mg ascorbic acid, 49.9-76.9 mCi, 6.31-9.72 mCi/mL, GE Liquid target, n=3, T4 (4 h) | [2]; 5 mg ascorbic acid, 60-69.9 mCi, 7.61-8.81 mCi/mL, 3 × GE Liquid Target, 3 × EZAG GalliaPharm, n=6, T0 | [2]; 5 mg ascorbic acid, 60-69.9 mCi, 7.61-8.81 mCi/mL, 3 × GE Liquid Target, 3 × EZAG GalliaPharm, n=6, T4 (4 h) | [2]; 10 mg ascorbic acid, 458-500 mCi, 43.4-47.3 mCi/mL, GE Solid Target, n=3, T0 | [2]; 10 mg ascorbic acid, 458-500 mCi, 43.4-47.3 mCi/mL, GE Solid Target, n=3, T4 (4 h) | [2]; 10 mg ascorbic acid, 514-520 mCi, 49.0-66.1 mCi/mL, GE Solid Target, n=3, T0 | [2]; 10 mg ascorbic acid, 514-520 mCi, 49.0-66.1 mCi/mL, GE Solid Target, n=3, T6 (6 h) | [2]; 15 mg ascorbic acid, 10.0-18.4 mCi, 0.95-1.77 mCi/mL, 1 × EZAG GalliaPharm, 2 × IRE Galli Eo, n=3, T0 | [2]; 15 mg ascorbic acid, 10.0-18.4 mCi, 0.95-1.77 mCi/mL, 1 × EZAG GalliaPharm, 2 × IRE Galli Eo, n=3, T1 (1 h) | [2]; 15 mg ascorbic acid, 23.7-47.6 mCi, 2.26-4.53 mCi/mL, 1 × EZAG GalliaPharm, 2 × IRE Galli Eo, n=3, T0 | [2]; 15 mg ascorbic acid, 23.7-47.6 mCi, 2.26-4.53 mCi/mL, 1 × EZAG GalliaPharm, 2 × IRE Galli Eo, n=3, T4 (4 h) | [2]; 20 mg ascorbic acid, 514-544 mCi, 48.3-51.9 mCi/mL, GE Solid Target, n=2, T0 | [2]; 20 mg ascorbic acid, 514-544 mCi, 48.3-51.9 mCi/mL, GE Solid Target, n=2, T6 (6 h) | [2]; 50 mg ascorbic acid, 560 mCi, 71.1 mCi/mL, GE Solid Target, n=1, T0 | [2]; 50 mg ascorbic acid, 560 mCi, 71.1 mCi/mL, GE Solid Target, n=1, T6 (6 h) | [3]; 25 mg ascorbic acid, 10.2 mCi, 0.97 mCi/mL, IRE Galli Eo, n=1, T0 | [3]; 25 mg ascorbic acid, 10.2 mCi, 0.97 mCi/mL, IRE Galli Eo, n=1, T1 (1 h) | [3]; 25 mg ascorbic acid, 19.5-20.0 mCi, 1.85-1.90 mCi/mL, EZAG GalliaPharm, n=2, T0 | [3]; 25 mg ascorbic acid, 19.5-20.0 mCi, 1.85-1.90 mCi/mL, EZAG GalliaPharm, n=2, T1 (1 h) | [3]; 25 mg ascorbic acid, 23.3-24 mCi, 2.22-2.28 mCi/mL, IRE Galli Eo, n=2, T0 | [3]; 25 mg ascorbic acid, 23.3-24 mCi, 2.22-2.28 mCi/mL, IRE Galli Eo, n=2, T4 (4 h) | [3]; 25 mg ascorbic acid, 46.0-46.1 mCi, 4.38-4.39 mCi/mL, EZAG GalliaPharm, n=2, T0 | [3]; 25 mg ascorbic acid, 46.0-46.1 mCi, 4.38-4.39 mCi/mL, EZAG GalliaPharm, n=2, T4 (4 h) | [3]; control, 0 mg ascorbic acid, 70 mCi, GE Solid Target, n=1, T0 | [3]; control, 0 mg ascorbic acid, 70 mCi, GE Solid Target, n=1, T4 (4 h) | [3]; validation batches, 25 mg ascorbic acid, 51.6-62.7 mCi, 4.56-5.88 mCi/mL, IRE Galli Eo, n=3, T0 | [3]; validation batches, 25 mg ascorbic acid, 51.6-62.7 mCi, 4.56-5.88 mCi/mL, IRE Galli Eo, n=3, T4 (4 h) | [3]; validation batches, 25 mg ascorbic acid, 53.3-74.4 mCi, 5.03-6.92 mCi/mL, GE Liquid target, n=3, T0 | [3]; validation batches, 25 mg ascorbic acid, 53.3-74.4 mCi, 5.03-6.92 mCi/mL, GE Liquid target, n=3, T4 (4 h) | [3]; validation batches, 25 mg ascorbic acid, 65.0-66.4 mCi, 5.74-6.15 mCi/mL, EZAG GalliaPharm, n=3, T0 | [3]; validation batches, 25 mg ascorbic acid, 65.0-66.4 mCi, 5.74-6.15 mCi/mL, EZAG GalliaPharm, n=3, T4 (4 h) | [3]; validation batches, 25 mg ascorbic acid, 537-551 mCi, 50.2-51.6 mCi/mL, GE Solid Target, n=3, T0 | [3]; validation batches, 25 mg ascorbic acid, 537-551 mCi, 50.2-51.6 mCi/mL, GE Solid Target, n=3, T6 (6 h) | [3]; validation batches, 25 mg ascorbic acid, 555-564 mCi, 51.1-52.7 mCi/mL, ARTMS Solid Target, n=3, T0 | [3]; validation batches, 25 mg ascorbic acid, 555-564 mCi, 51.1-52.7 mCi/mL, ARTMS Solid Target, n=3, T6 (6 h)
